Experiments:
Brain = experiment: AUC in rat brain at 10 mg/kg, sc; assay type: ADME, organism-based; set-up: dose 10 mg/kg, route subcutaneous; settings: in vivo
Mu-type opioid receptor = Mu-type opioid receptor (Homo sapiens, UniProt P35372); experiment: biochemical; assay type: cell-based, 293T
Description: Displacement of [3H]naloxone from MOR (unknown origin) expressed in human 293T cells

[1] = Ratio of drug uptake in brain to plasma in rat; assay type: ADME; settings: brain and plasma
[2] = Ratio of unbound drug in brain to plasma in rat; assay type: ADME; settings: brain and plasma, read-out: K(p,uu,brain)
[3] = AUC in rat interstitial fluid at 10 mg/kg, sc by transcortical microdialysis; assay type: ADME, organism-based; set-up: dose 10 mg/kg, route subcutaneous; settings: in vivo
[4] = Apparent permeability of the compound; settings: not told
Rattus norvegicus = experiment: AUC (0 to 1 hr) in rat at 0.5 mg/kg, iv; assay type: ADME, organism-based, Plasma; set-up: time < 1 hr, dose 0.5 mg/kg, route intravenous; settings: in vivo
Substance-P receptor = Substance-P receptor (Homo sapiens, UniProt P25103); experiment: Antagonist activity at NK1 receptor (unknown origin)
Gerbillinae = experiment: Antagonist activity at NK1 receptor in substance P-induced gerbil foot tapping model
[5] = Solubility of the compound; assay type: physicochemical
[6] = Oral bioavailability in dog; assay type: ADME, organism-based, Canis lupus familiaris; settings: in vivo
[7] = Half life in dog; assay type: ADME, organism-based, Canis lupus familiaris; settings: in vivo
[8] = Ratio of unbound drug in brain to plasma in mouse; assay type: ADME, organism-based; settings: brain and plasma, read-out: K(p,uu,brain)

Chain of Substance-P receptor (P25103 whole entry): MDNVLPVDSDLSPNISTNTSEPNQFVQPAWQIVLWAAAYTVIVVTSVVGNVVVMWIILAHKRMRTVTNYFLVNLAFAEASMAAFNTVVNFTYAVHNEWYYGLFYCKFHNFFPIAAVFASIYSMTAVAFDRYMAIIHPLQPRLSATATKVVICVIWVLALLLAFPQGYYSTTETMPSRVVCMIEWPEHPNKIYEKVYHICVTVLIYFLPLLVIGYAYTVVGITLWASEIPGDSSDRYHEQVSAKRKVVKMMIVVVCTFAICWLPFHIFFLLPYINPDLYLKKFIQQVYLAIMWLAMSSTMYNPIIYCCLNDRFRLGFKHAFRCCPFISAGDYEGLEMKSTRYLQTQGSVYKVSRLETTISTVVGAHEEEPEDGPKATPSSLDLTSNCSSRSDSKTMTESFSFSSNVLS
Chain of Mu-type opioid receptor (P35372 whole entry): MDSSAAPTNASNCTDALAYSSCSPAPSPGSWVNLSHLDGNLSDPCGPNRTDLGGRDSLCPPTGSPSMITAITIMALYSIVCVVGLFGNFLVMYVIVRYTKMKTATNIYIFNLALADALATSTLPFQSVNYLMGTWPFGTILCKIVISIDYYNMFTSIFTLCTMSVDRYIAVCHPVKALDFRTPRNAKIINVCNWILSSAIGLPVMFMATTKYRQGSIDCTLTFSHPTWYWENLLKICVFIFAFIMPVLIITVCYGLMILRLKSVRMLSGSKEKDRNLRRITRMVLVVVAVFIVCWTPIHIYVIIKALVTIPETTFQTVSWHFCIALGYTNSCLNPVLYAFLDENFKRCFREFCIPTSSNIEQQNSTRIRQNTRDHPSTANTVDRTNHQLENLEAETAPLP

Structure (SMILES)	AUC (Brain) [µM/min]	Kp [1]	AUC [3] [µM/min]	AUC (Rattus norvegicus) [ng·h/g]	MED (Gerbillinae) [mg/kg]	other results
CN1CC[C@]23c4c5ccc(O)c4O[C@H]2[C@@H](O[C@@H]2O[C@H](C(=O)O)[C@@H](O)[C@H](O)[C@H]2O)C=C[C@H]3[C@H]1C5 [MORPHINE GLUCURONIDE]	42	0.05	336	–	–	Ki (Mu-type opioid receptor): 63 nM; Kp uu [2]: 0.56
CC(C)(C)c1ccc(C(O)CCCN2CCC(C(O)(c3ccccc3)c3ccccc3)CC2)cc1 (centres undefined) [TERFENADINE]	–	–	–	–	–	Papp [4]: 28.5 ×10⁻⁶ cm/s
C[C@H](NC(=O)[C@](Cc1c[nH]c2ccccc12)(CN(C)C)NC(=O)OCc1cc2ccccc2o1)c1ccccc1	–	6	–	50	1	IC50 (Substance-P receptor): 0.5 nM
CN1CC[C@]23c4c5ccc(O)c4O[C@H]2[C@@H](O)C=C[C@H]3[C@H]1C5 [MORPHINE]	186	–	79	–	–	–
C[C@H](NC(=O)[C@@](C)(Cc1c[nH]c2ccccc12)NC(=O)OCc1cc2ccccc2o1)c1ccccc1	–	0.4	–	120	30	solubility [5]: < 2 µg/mL; bioavailability [6]: 60%; half-life [7]: > 6 h
COc1ccc(C(CN(C)C)C2(O)CCCCC2)cc1 (centres undefined) [VENLAFAXINE]	–	–	–	–	–	Kp uu [8]: 0.98

Source: ChEMBL document CHEMBL3421561, “CNS drug design: balancing physicochemical properties for optimal brain exposure” (J Med Chem, 2015)
